# Values joined by “and” are separate entries in the source; they are usually repeats but may differ in a detail not shown here. Equal entries are not always repeated. Where two headings read alike, the source gives them in different places. Marks after values point to notes of the source that are not given here.
# How the values were obtained:
# Female Kunming mice [1] = assay type: in vivo
# Kunming mice [2] = assay type: in vivo
# Kunming mice [3] = settings: mouse, in vivo
# male BALB/c mice [4] = assay: cancer-induced pain (CIP) model, thermosensitive test; assay type: in vivo
# Procedure: Influence of Analgesic Polypeptides on Neuralgia in a Cancer-Induced Pain (CIP) Model
# A number of male BALB/c mice each weighing 25-30 g were used.
# Von Fery monofilament; a microsyringe, 5 mg/mL solutions of polypeptides I, II and II I; normal saline.
# (§1) BALB/c mice were taken, and the right sciatic nerve was exposed; ascites containing 5×10^4 Meth A sarcoma cells were injected into the proximal nerve near the sciatic nerve trochanter far from the tendon branch of the posterior biceps, the wound was closed, and the same volume of normal saline was injected into the left side by performing a sham operation.
# 1.3.1 Thermosensitive Test
# On the 4th, 7th, 10th and 14th days after inoculation, the latency of foot lifting caused by heat radiation stimulation to animals was observed, and the heat radiation intensity was adjusted to cause the latency of foot lifting of normal mice to be (10±2) s.
# All data was expressed as M±SD and subjected to one-way ANOVA.
# male BALB/c mice [5] = assay: cancer-induced pain (CIP) model, gross behavior; assay type: in vivo; settings: 14th day after inoculation
# Procedure: as §1
# On the 4th, 7th, 10th and 14th days after inoculation, spontaneous pain and foot drop and the like occurred before the occurrence of thermal sensitivity and mechanical pain sensitivity behaviors, […]
# SD rats = assay: pain threshold of trigeminal nerve (trigeminal neuralgia model); assay type: in vivo; settings: for highest pain threshold on the operative side / pain threshold on the opposite side: 3 h after injection; for Pain threshold: intraperitoneal
# Female Kunming mice [6] = tested on: Female Kunming mice
# Female Kunming mice [7] = tested on: Female Kunming mice; remark: listed apart in the source
# Female Kunming mice [8] = tested on: Female Kunming mice; remark: listed apart in the source
# [9] = 50 μg/kg, injected subcutaneously
# [10] = 100 μg/kg, injected subcutaneously
substance,measurement,setting,value
Gly-Ser-Cys-Ser-Thr-Pro-Pro-d{Cys}-Val-Leu-Tyr-Ser [Polypeptide I],Pain threshold,Female Kunming mice [1]; 0 min,28.32 ± 0.21 s
same,Pain threshold,"Female Kunming mice [1]; mouse, in vivo, ip",25.21 ± 0.42^∧∧ s and 31.32 ± 0.32*^∧ s and 24.23 ± 0.42^∧ s and 21.39 ± 0.45^∧ s and 29.23 ± 0.42 s and 23.44 ± 0.24 s
same,heat thresholds of mice compared with the normal saline negative control group,"Female Kunming mice [1]; mouse, in vivo, ip",effectively increase the heat thresholds of mice
same,Pain threshold (tail flick),Kunming mice [2]; 0 min,2.31 ± 0.12 s
same,Pain threshold (tail flick),Kunming mice [2]; 15 min,2.12 ± 0.21^∧∧ s
same,Pain threshold (tail flick),Kunming mice [2]; 30 min,2.12 ± 0.12 s
same,Pain threshold (tail flick),Kunming mice [2]; 45 min,3.22 ± 0.12^∧ s
same,Pain threshold (tail flick),Kunming mice [2]; 60 min,2.12 ± 0.21*^∧ s
same,Pain threshold (tail flick),Kunming mice [2]; 75 min,2.12 ± 0.12 s
same,Pain threshold (tail flick),Kunming mice [2]; 90 min,2.32 ± 0.14 s
same,difference from the conotoxin group during a time period (^^P<0.01),"Kunming mice [2]; mouse, in vivo",significantly different from the conotoxin group
same,analgesic effects in formalin-induced pain experiments,Kunming mice [3],good analgesic effects
same,"cumulative foot licking time, Phase I",Kunming mice [3],46.44 ± 10.28*^
same,"cumulative foot licking time, Phase II",Kunming mice [3],42.10 ± 14.32*^
same,increase of the latency of foot lifting,male BALB/c mice [4]; 14th day after inoculation,particularly significant
same,Latency of foot lifting before administration,"male BALB/c mice [4]; heat radiation stimulation, before administration",10.56 ± 0.89
same,Latency (D) of foot lifting after administration,"male BALB/c mice [4]; heat radiation stimulation, day 4",10.01 ± 0.23
same,Latency (D) of foot lifting after administration,"male BALB/c mice [4]; heat radiation stimulation, day 7",9.26 ± 0.99
same,Latency (D) of foot lifting after administration,"male BALB/c mice [4]; heat radiation stimulation, day 10",8.56 ± 0.23
same,Latency (D) of foot lifting after administration,"male BALB/c mice [4]; heat radiation stimulation, day 14",7.44 ± 0.85
same,left foot lifting behavior,male BALB/c mice [5],obviously observed
same,animal reaction thresholds,"SD rats; 50 μg/kg and 100 μg/kg, injected subcutaneously",significantly increased
same,time the pain thresholds lasted,SD rats; [9],1 h
same,highest pain threshold on the operative side,SD rats; [9],2.3 ± 0.5 g
same,pain threshold on the opposite side,SD rats; [9],1.2 ± 0.2 g
same,time the effect on the operative side lasted,SD rats; [10],about 8 h
same,highest pain threshold on the operative side,SD rats; [10],7.4 ± 0.9 g
same,pain threshold on the opposite side,SD rats; [10],3.2 ± 1.3 g
same,pain threshold change,"SD rats; 300 μg/kg, subcutaneously",not significantly increased
same,Pain threshold,"SD rats; Dose 50 (μg/kg), 0 h",25.44 ± 0.23 s
same,Pain threshold,"SD rats; Dose 50 (μg/kg), 1 h",26.35 ± 0.65 s
same,Pain threshold,"SD rats; Dose 50 (μg/kg), 2 h",26.89 ± 0.23 s
same,Pain threshold,"SD rats; Dose 50 (μg/kg), 3 h",27.56 ± 0.56 s
same,Pain threshold,"SD rats; Dose 50 (μg/kg), 4 h",26.45 ± 0.78 s
same,Pain threshold,"SD rats; Dose 50 (μg/kg), 5 h",25.89 ± 0.12 s
same,Pain threshold,"SD rats; Dose 100 (μg/kg), 0 h",25.11 ± 0.56 s
same,Pain threshold,"SD rats; Dose 100 (μg/kg), 1 h",27.86 ± 0.95 s
same,Pain threshold,"SD rats; Dose 100 (μg/kg), 2 h",28.12 ± 0.65 s
same,Pain threshold,"SD rats; Dose 100 (μg/kg), 3 h",29.46 ± 0.61 s
same,Pain threshold,"SD rats; Dose 100 (μg/kg), 4 h",26.43 ± 0.62 s
same,Pain threshold,"SD rats; Dose 100 (μg/kg), 5 h",25.68 ± 0.33 s
same,Pain threshold,"SD rats; Dose 300 (μg/kg), 0 h",26.65 ± 0.41 s
same,Pain threshold,"SD rats; Dose 300 (μg/kg), 1 h",30.56 ± 0.11 s
same,Pain threshold,"SD rats; Dose 300 (μg/kg), 2 h",30.53 ± 0.62 s
same,Pain threshold,"SD rats; Dose 300 (μg/kg), 3 h",29.56 ± 0.12 s
same,Pain threshold,"SD rats; Dose 300 (μg/kg), 4 h",28.15 ± 0.32 s
same,Pain threshold,"SD rats; Dose 300 (μg/kg), 5 h",27.15 ± 0.65 s
same,Movement distances of mice in open field tests,Female Kunming mice [6]; 1 h,20.39 ± 1.21^
same,Movement distances of mice in the center area in open field tests,Female Kunming mice [6]; 1 h,20.39 ± 1.21^
same,Movement distances of mice in the peripheral area in open field tests,Female Kunming mice [6]; 1 h,20.39 ± 1.21^
same,Number of entrances to the center area in open field tests,Female Kunming mice [6]; 1 h,20.39 ± 1.21^
same,Number of entrances to the peripheral area in open field tests,Female Kunming mice [6]; 1 h,20.39 ± 1.21^
same,Residence time in the center area in open field tests,Female Kunming mice [6]; 1 h,20.39 ± 1.21^ s
same,Residence time in the peripheral area in open field tests,Female Kunming mice [6]; 1 h,20.39 ± 1.21^ s
same,Movement distances of mice in open field tests,Female Kunming mice [6]; 24 h,18.99 ± 1.48 m
same,Movement distances of mice in the center area in open field tests,Female Kunming mice [6]; 24 h,18.99 ±1.48 m
same,Movement distances of mice in the peripheral area in open field tests,Female Kunming mice [6]; 24 h,18.99 ± 1.48 m
same,Number of entrances to the center area in open field tests,Female Kunming mice [6]; 24 h,18.99 ± 1.48
same,Number of entrances to the peripheral area in open field tests,Female Kunming mice [6]; 24 h,18.99 ± 1.48
same,Residence time in the center area in open field tests,Female Kunming mice [6]; 24 h,18.99 ± 1.48 s
same,Residence time in the peripheral area in open field tests,Female Kunming mice [6]; 24 h,18.99 ± 1.48 s
same,Movement distances of mice in open field tests,Female Kunming mice [6]; Time 0,20.57 ± 1.65 m
same,Movement distances of mice in the center area in open field tests,Female Kunming mice [6]; Time 0,20.57 ±1.65 m
same,Movement distances of mice in the peripheral area in open field tests,Female Kunming mice [6]; Time 0,20.57 ± 1.65 m
same,Number of entrances to the center area in open field tests,Female Kunming mice [6]; Time 0,20.57 ± 1.65
same,Number of entrances to the peripheral area in open field tests,Female Kunming mice [6]; Time 0,20.57 ± 1.65
same,Residence time in the center area in open field tests,Female Kunming mice [6]; Time 0,20.57 ± 1.65 s
same,Residence time in the peripheral area in open field tests,Female Kunming mice [6]; Time 0,20.57 ± 1.65 s
same,side effects compared with conotoxin (open field),"Female Kunming mice [6]; mouse, in vivo, ip",lower side effects
same,various indexes in open field experiments compared with the normal saline group,"Female Kunming mice [6]; mouse, in vivo, ip",no significant difference
same,Movement duration of mice in forced swimming tests,Female Kunming mice [7]; 1 h,20.39 ± 1.21^ s
same,Movement duration of mice in forced swimming tests,Female Kunming mice [7]; 24 h,18.99 ± 1.48 s
same,Movement duration of mice in forced swimming tests,Female Kunming mice [7]; Time 0,20.57 ± 1.65 s
same,toxic side effects compared with the conotoxin (forced swimming),"Female Kunming mice [7]; mouse, in vivo, ip",lower toxic side effects
same,Duration of the immobility of mice in tail suspension tests,Female Kunming mice [8]; 1 h,20.39 ± 1.21^ s
same,Duration of the immobility of mice in tail suspension tests,Female Kunming mice [8]; 24 h,18.99 ± 1.48 s
same,Duration of the immobility of mice in tail suspension tests,Female Kunming mice [8]; Time 0,20.57 ± 1.65 s
same,data of tail suspension test compared with the normal saline group,"Female Kunming mice [8]; mouse, in vivo, ip",no significant difference
same,toxic side effects compared with the conotoxin (tail suspension),"Female Kunming mice [8]; mouse, in vivo, ip",lower toxic side effects
